The values below come from paper PMC11339918, “Extracellular Domain of IL-10 Receptor Chain-2 (IL-10R2) and Its Arginine-Containing Peptides Are Susceptible Substrates for Human Prostate Kallikrein-2 (KLK2)” (Biochemistry, 2024).

B1: recombinant IL-10: recombinant IL-10 (10 ng/mL) used in BMDM activation assay (protein, UniProt P18893 19-178, looked up)
Interleukin-10: SRGQYSREDNNCTHFPVGQSHMLLELRTAFSQVKTFFQTKDQLDNILLTDSLMQDFKGYLGCQALSEMIQFYLVEVMPQAEKHGPEIKEHLNSLGEKLKTLRMRLRRCHRFLPCENKSKAVEQVKSDFNKLQDQGVYKAMNEFDIFINCIEAYMMIKMKS

The first assay concerns BMDM cells. The assay is described as follows: BMDM activation with LPS/IFN-γ: NO, TNF-α and IL-12 p40 in supernatant. Conditions: IL-10 10 ng/mL; LPS 200 ng/mL / IFN-γ 100 U/mL; 72 h; Griess, ELISA. It is filed as cell-based, C57Bl/6 mice. How it is done:
BMDM were obtained from C57Bl/6 mice and used as previously reported.[17]
For BMDM activation assays in vitro, cells were plated at a density of 10^5 cells/mL in 96-well plates at 37 °C in the absence and presence of KLK2 or KLK3 (7.5 μg/mL) for 2 h. The cells were then washed with PBS and treated with LPS (200 ng/mL)/IFN-γ (100 U/mL) stimuli in the presence or absence of recombinant IL-10 (10 ng/mL). The activation response of BMDM cells was evaluated after 72 h by quantification of nitric oxide (NO), TNF-α, and IL-12 p40 in the supernatant of BMDM cell cultures. NO was quantified using the Griess assay,[19] and the cytokines TNF-α and IL-12 p40 were quantified using sandwich enzyme-linked immunosorbent assay (ELISA) kits (B.D. Biosciences) following the manufacturer’s instructions.
Figure 3 KLK2 converts BMDM cells to a pro-inflammatory status characterized by maintaining NO, TNF-α, and IL-12p40 levels, even in the presence of recombinant IL-10. BMDM cells from C57Bl/6 mice were incubated in a 96-well plate (1 × 10^5 cells) with KLK2 (7.5 μg/mL) or KLK3 (7.5 μg/mL) for 2 h. After this, cells were washed and incubated with or without lipopolysaccharide (LPS) (200 ng/mL), IFN-γ (IFN), and recombinant IL-10 (IL10). (A) NO quantified in the culture supernatant by the Griess method. (B) TNF-α and (C) IL-12 p40 cytokines were quantified by ELISA in culture supernatants. MΦ = control macrophages. * p-value <0.001, analyzed by ANOVA with Tukey’s multiple comparisons.
Regarding B1, the “generation of NO, TNF-α and IL-12 p40 in LPS/IFN-γ activated BMDM” value is “reduced the generation of NO, TNF-α, and IL-12 p40”.

Still in this assay, the particulars now being: pretreatment 7.5 μg/mL for 2 h; then LPS 200 ng/mL / IFN-γ 100 U/mL ± IL-10 10 ng/mL; 72 h; Griess, ELISA.
Take “KLK3: human kallikrein-related peptidase 3 (PSA—prostatic-specific antigen)”: the “IL-10 inhibition of NO, TNF-α and IL-12 p40 generation in pretreated BMDM” value is reported as “did not show these effects”.

For “KLK2: human prostate kallikrein-2, recombinant, from a baculovirus-insect cell line system”, the “IL-10 inhibition of NO, TNF-α and IL-12 p40 generation in pretreated BMDM” value is given as “these IL-10 inhibitory effects were not observed”.

The next assay deals with KLK2. Briefly: Effects of salts and glycosaminoglycans on KLK2 hydrolysis of Abz-KLRSSKQ-EDDnp. In kind it is biochemical, human. To be noted: 20 mM Tris–HCl, 1 mM EDTA, 5.0 μM Abz-KLRSSKQ-EDDnp, [E] = 1.58 nM, 37 °C, pH 8.0. The procedure: Bovine lung heparin was prepared as previously reported;[16] dermatan sulfate (12 000 Da) and chondroitin sulfate (25 000 Da) were purchased from Seikagaku Kogyo Co. (Tokyo, Japan), and heparan sulfate (16 000 Da) from the bovine lung was a generous gift from Dr. P. Bianchini (Opocrin Research Laboratories, Modena, Italy).
Figure 1 KLK2 hydrolysis of Abz-KLRSSKQ-EDDnp. (A) Effects of sodium citrate, sodium sulfate, and sodium chloride on the FRET-peptide hydrolysis by KLK2. (B) pH profile for the KLK2 activity. (C) Effects of glycosaminoglycans on KLK2 activity. Assays were carried out in 20 mM Tris–HCl, 1 mM EDTA, and 5.0 μM substrate; [E] = 1.58 nM at 37 °C and pH 8.0 for experiments in (A and C).
In the case of dermatan sulfate, the “effect of glycosaminoglycan on KLK2 activity” value (from here on “effect of glycosaminoglycan”) was “activate KLK2 in sub- and micromolar concentrations, respectively”.

For the molecule `O=C([O-])CC(O)(CC(=O)[O-])C(=O)[O-].[Na+].[Na+].[Na+]` [sodium citrate], the “effect of salt on KLK2 activity” value is reported as “ten times more efficient activator of KLK2 than sodium sulfate”.

For heparan sulfate, the “effect of glycosaminoglycan” value is “activate KLK2 in sub- and micromolar concentrations, respectively”.

On to chondroitin sulfate, for which the “effect of glycosaminoglycan” value is on record as “inhibitory”.

As for heparin, the “effect of glycosaminoglycan” value was “almost no effect”.

The test system of the next assay is KLK3. Briefly: Hydrolysis by KLK3 of IL-10R2-derived FRET peptides containing F or Y. In kind it is biochemical, human. To be noted: 2 nM KLK3, 20 mM Tris-HCl, 1 mM EDTA, 1.5 M sodium citrate, pH 7.8, 37 °C. From the text: Obtained from a baculovirus-insect cell line system, purified, and activated as previously reported,[14] MUGB (4-methylumbelliferyl p-guanidino benzoate hydrochloride) was used for the spectrofluorimetric determination of molar concentrations of active KLK2.[15] KLK3 was obtained and assayed as previously reported.[3] […]
FRET Peptides with F FRET Peptides with Y
Abz-MNSVNFKNIL-Q-E DD np Abz-FTAQYLSYR-Q-EDD np
Abz-WESPAFAKGN-Q-EDD np Abz – AQYL SYRIF-Q-EDDnp
Abz-KGNLTFT AQY-Q-EDDnp Abz-SSLSKYGDHT-Q-EDD np
Abz-LSYRIFQDKA-Q-EDD np Abz-KIENEYET WT-Q-EDDnp
Abz-LTEADFSSLS-Q-EDD np Abz-TMKNVYNSWT-Q-ED Dnp
Abz-RVRAEFADEH-Q-EDDnp Abz-NSWTYNVQ-Q-EDDnp
Abz-HSDWVNITFAPVD-Q-EDDnp Abz-NVQYWKNG-Q-EDDnp
Abz-SLHMRFL AP K-Q-EDD np Abz-QITPQYDFEV-Q-EDD np
Abz-GTDEKFQ IT P-Q-EDD np Abz – EPWTTYAVQR-Q-EDD np
Conditions of reactions: 2 nM KLK3, 20 mM Tris -HCl, 1 mM EDTA, 1.5 M sodium citrate, pH 7.8, at 37 °C.
The sequence o f FRET peptide with F or Y in the middle of the sequence can be identiﬁed in the IL-
10R2 ectodomain sequence around F or Y, as shown b e l o w. Cysteines were substituted by Alanine (A)
1 MAWSLGSWLGGCLLVSALGMVPPPENVRMNSVNFKNILQWESPAFAKGNLTFTAQYLSYR.
61 IFQDKCMNTTLTECDFSSLSKYGDHTLRVRAEFADEHSDWVNITFCPVDDTIIGPPGMQV.
121 EVL ADSLHMR FL APKIENEY ET W TMKNVYN SWTYNVQYWK NGTDEKFQIT PQYDFEVLRN.
181 LEPW TTYCVQ VRGF LPDRNK AGEWSEPVCE QTTHDETVPS.
In the case of “Abz-TMKNVYNSWT-Q-ED Dnp [Abz-TMKNVYNSWT-Q-EDDnp, FRET peptide with Y derived from IL-10R2 ectodomain]”, the “hydrolysis by KLK3 (in words)” value was “resistant to hydrolysis by KLK3”.

“Abz-KIENEYET WT-Q-EDDnp [Abz-KIENEYETWT-Q-EDDnp, FRET peptide with Y derived from IL-10R2 ectodomain]”: the “hydrolysis by KLK3 (in words)” value is “resistant to hydrolysis by KLK3”.

As to “Abz – EPWTTYAVQR-Q-EDD np [Abz-EPWTTYAVQR-Q-EDDnp, FRET peptide with Y derived from IL-10R2 ectodomain]”, the “hydrolysis by KLK3 (in words)” value is “resistant to hydrolysis by KLK3”.

On to “Abz-T P QYDFEVLR-Q-EDDnp [Abz-TPQYDFEVLR-Q-EDDnp, FRET peptide with F derived from IL-10R2 ectodomain]”, for which the “hydrolysis by KLK3 (in words)” value was “resistant to hydrolysis by KLK3”.

“Abz-HSDWVNITFAPVD-Q-EDDnp [FRET peptide with F derived from IL-10R2 ectodomain]”: the “hydrolysis by KLK3 (in words)” value was “resistant to hydrolysis by KLK3”.

Turning to “Abz-FTAQYLSYR-Q-EDD np [Abz-FTAQYLSYR-Q-EDDnp, FRET peptide with Y derived from IL-10R2 ectodomain]”, the “hydrolysis by KLK3 (in words)” value is on record as “resistant to hydrolysis by KLK3”.

As for “Abz-SSLSKYGDHT-Q-EDD np [Abz-SSLSKYGDHT-Q-EDDnp, FRET peptide with Y derived from IL-10R2 ectodomain]”, the “hydrolysis by KLK3 (in words)” value is “resistant to hydrolysis by KLK3”.

Regarding “Abz-NSWTYNVQ-Q-EDDnp [FRET peptide with Y derived from IL-10R2 ectodomain]”, the “hydrolysis by KLK3 (in words)” value is on record as “resistant to hydrolysis by KLK3”.

Take “Abz-VQVRGFLPDR-Q-EDD np [Abz-VQVRGFLPDR-Q-EDDnp, FRET peptide with F derived from IL-10R2 ectodomain]”: the “hydrolysis by KLK3 (in words)” value is on record as “resistant to hydrolysis by KLK3”.

In the case of “Abz-SLHMRFL AP K-Q-EDD np [Abz-SLHMRFLAPK-Q-EDDnp, FRET peptide with F derived from IL-10R2 ectodomain]”, the “hydrolysis by KLK3 (in words)” value is reported as “resistant to hydrolysis by KLK3”.
